Patent US20180193287A1, “HOPS-BASED SUBSTANCE AND USE OF THE SUBSTANCE” (John I. Haas, Inc., priority 2015, published 2018)

Tested on: acute liver damage in mice as a result of alcohol
Test: acute liver damage in mice as a result of alcohol, liver tissue triglyceride (FIG. 3)
Type: in vivo
Conditions: alcohol by gavage 6 g/kg body weight, XN 5 mg/kg and/or IAA 25 mg/kg body weight applied simultaneously, liver removed after 12 hours, P<0.05
Experimental: A model used was acute liver damage in mice as a result of alcohol. Alcohol was applied to the mice by gavage (6 g/kg body weight). Furthermore, xanthohumol (XN; 5 mg/kg body weight), iso-alpha-acid (IAA; 25 mg/kg body weight) and a combination of xanthohumol (5 mg/kg body weight) and iso-alpha-acid (25 mg/kg body weight) were simultaneously applied in the experimental groups. After 12 hours the animals were sacrificed, the liver tissue was removed, and the triglyceride (TG) […] therein was determined. A control group of untreated mice (no-Alc) was also tested. In the “alcohol group”, a significant increase in TG can be seen in comparison with the “non-alcohol group”.
Again, the significance level is P<0.05. CTR stands for a group of alcohol-treated mice without addition of xanthohumol, iso-alpha-acid or a combination of xanthohumol and iso-alpha-acid.

| SMILES | triglyceride (TG) content of liver tissue versus alcohol group |
| --- | --- |
| CC(C)=CCC(=O)[C@@]1(O)C(O)=C(C(=O)CC(C)C)C(=O)C1CC=C(C)C (stereo partly drawn) [iso-alpha-acid] | does not differ significantly |
| COc1cc(O)c(CC=C(C)C)c(O)c1C(=O)/C=C/c1ccc(O)cc1 [xanthohumol] | does not differ significantly |
